Measured values reported in article PMC4275348 (Molecular microbiology, 2014).
Changes are numbered by the printed parent chain.

Assays:
Kin^off LuxN mutants = assay: Bioluminescence of V. harveyi XK847 harboring Kin^off luxN alleles; format: cell-based, Vibrio harveyi
LuxN = LuxN (Vibrio campbellii, UniProt A7MRY4); conditions: 1 μM AHL; V. harveyi TL25; versus DMSO
LuxN^H210T = biological target: T1, LuxN^H210T (Vibrio campbellii, UniProt A7MRY4, H210T); assay: Bioluminescence of V. harveyi XK006 carrying luxN H210T; format: cell-based, Vibrio harveyi; conditions: 1 μM AHL
T1 sequence (A7MRY4 1-849 H210T): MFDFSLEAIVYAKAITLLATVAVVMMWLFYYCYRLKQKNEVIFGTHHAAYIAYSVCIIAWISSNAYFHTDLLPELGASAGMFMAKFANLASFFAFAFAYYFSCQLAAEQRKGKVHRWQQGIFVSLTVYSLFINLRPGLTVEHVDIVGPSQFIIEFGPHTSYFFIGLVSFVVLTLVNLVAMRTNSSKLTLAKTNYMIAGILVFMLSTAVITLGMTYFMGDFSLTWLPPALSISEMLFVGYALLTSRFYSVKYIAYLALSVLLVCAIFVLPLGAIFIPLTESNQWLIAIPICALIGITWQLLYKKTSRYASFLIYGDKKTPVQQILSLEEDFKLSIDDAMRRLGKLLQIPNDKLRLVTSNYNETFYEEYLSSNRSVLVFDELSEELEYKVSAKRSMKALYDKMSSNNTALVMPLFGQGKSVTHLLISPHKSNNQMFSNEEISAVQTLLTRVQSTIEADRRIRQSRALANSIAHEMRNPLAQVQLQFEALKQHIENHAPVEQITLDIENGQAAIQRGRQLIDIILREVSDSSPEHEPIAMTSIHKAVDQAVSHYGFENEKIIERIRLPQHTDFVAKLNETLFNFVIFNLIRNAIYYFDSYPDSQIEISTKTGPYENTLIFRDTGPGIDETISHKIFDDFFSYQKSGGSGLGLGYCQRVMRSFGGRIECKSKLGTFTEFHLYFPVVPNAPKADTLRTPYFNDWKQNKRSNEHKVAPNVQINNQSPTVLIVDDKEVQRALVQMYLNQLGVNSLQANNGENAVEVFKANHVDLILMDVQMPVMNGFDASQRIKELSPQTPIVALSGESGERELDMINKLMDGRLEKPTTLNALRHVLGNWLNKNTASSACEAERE

LuxN^G147D/Y194H = biological target: T2, LuxN^G147D/Y194H (Vibrio campbellii, UniProt A7MRY4, G147D/Y194H); assay: Bioluminescence of V. harveyi XK006 carrying luxN G147D/Y194H; format: cell-based, Vibrio harveyi
T2 sequence (A7MRY4 1-849 G147D/Y194H): T1 sequence (A7MRY4 1-849 H210T) with G147D, Y194H, T210H

LuxN^H210N = biological target: T3, LuxN^H210N (Vibrio campbellii, UniProt A7MRY4, H210N); assay: Bioluminescence of V. harveyi XK006 carrying luxN H210N; format: cell-based, Vibrio harveyi; conditions: dose-dependent light production
T3 sequence (A7MRY4 1-849 H210N): T1 sequence (A7MRY4 1-849 H210T) with T210N

`C[C@@H](O)CC(=O)N[C@H]1CCOC1=O` [3OH-C4 HSL, N-((R)-3-hydroxybutanoyl)-L-homoserine lactone] was tested, and the “light production / detection” value (Kin^off LuxN mutants) was “produced maximal light”, the “increase in light production” value (LuxN) was “over 1000 fold” and the “response (light production)” value (LuxN^H210T) was “modest response”. The “response (dose-dependent light production)” value (LuxN^G147D/Y194H) was “most potent agonist”, the “induction of light production” value (LuxN^G147D/Y194H; 20 nM AI-1) was 30 fold and the “less sensitivity than for the other two C4 AHLs (3O-C4 HSL, C4 HSL)” value (LuxN^H210N) was 10 fold.
